Consider one compound from ChEMBL document CHEMBL4725311, “Discovery of potent, orally bioavailable in vivo efficacious antagonists of the TLR7/8 pathway” (Bioorg Med Chem Lett, 2020).

For one assay, the target named is T1, Toll-like receptor 8 (Homo sapiens, UniProt Q9NR97).
T1 sequence (Q9NR97 whole entry): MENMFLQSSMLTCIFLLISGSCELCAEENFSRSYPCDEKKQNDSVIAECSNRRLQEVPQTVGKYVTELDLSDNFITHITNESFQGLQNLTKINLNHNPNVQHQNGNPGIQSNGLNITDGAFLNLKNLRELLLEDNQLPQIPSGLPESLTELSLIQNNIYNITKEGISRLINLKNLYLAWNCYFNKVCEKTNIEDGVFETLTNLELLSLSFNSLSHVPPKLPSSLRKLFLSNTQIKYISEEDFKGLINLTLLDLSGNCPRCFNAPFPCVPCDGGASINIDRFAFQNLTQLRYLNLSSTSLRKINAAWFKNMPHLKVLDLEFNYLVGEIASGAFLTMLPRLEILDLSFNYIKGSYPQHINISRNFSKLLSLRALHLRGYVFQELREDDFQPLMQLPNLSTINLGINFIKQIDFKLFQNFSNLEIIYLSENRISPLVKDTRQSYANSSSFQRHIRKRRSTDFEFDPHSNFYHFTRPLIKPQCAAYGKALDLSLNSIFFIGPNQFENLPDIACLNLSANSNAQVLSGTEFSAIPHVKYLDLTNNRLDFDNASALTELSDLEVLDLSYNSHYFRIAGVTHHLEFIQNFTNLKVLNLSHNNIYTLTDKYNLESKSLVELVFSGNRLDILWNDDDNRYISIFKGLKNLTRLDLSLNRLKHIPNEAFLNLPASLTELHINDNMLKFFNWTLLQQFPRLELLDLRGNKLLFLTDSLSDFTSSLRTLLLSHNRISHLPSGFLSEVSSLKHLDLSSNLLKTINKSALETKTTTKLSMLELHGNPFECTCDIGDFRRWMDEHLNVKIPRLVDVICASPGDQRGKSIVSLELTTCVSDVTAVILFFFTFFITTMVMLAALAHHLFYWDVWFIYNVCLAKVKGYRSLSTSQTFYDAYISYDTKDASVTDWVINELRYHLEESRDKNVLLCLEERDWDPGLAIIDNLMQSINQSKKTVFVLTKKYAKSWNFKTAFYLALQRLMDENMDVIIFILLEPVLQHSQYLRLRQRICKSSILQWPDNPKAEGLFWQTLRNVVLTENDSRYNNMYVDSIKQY
As to the kind of experiment: Antagonist activity at TLR8 in human THP-1 cells assessed as inhibition of resiquimod-induced TNFalpha production. The class given is cell-based.

The next assay deals with T2, Toll-like receptor 9 (Homo sapiens, UniProt Q9NR96).
T2 sequence (Q9NR96 whole entry): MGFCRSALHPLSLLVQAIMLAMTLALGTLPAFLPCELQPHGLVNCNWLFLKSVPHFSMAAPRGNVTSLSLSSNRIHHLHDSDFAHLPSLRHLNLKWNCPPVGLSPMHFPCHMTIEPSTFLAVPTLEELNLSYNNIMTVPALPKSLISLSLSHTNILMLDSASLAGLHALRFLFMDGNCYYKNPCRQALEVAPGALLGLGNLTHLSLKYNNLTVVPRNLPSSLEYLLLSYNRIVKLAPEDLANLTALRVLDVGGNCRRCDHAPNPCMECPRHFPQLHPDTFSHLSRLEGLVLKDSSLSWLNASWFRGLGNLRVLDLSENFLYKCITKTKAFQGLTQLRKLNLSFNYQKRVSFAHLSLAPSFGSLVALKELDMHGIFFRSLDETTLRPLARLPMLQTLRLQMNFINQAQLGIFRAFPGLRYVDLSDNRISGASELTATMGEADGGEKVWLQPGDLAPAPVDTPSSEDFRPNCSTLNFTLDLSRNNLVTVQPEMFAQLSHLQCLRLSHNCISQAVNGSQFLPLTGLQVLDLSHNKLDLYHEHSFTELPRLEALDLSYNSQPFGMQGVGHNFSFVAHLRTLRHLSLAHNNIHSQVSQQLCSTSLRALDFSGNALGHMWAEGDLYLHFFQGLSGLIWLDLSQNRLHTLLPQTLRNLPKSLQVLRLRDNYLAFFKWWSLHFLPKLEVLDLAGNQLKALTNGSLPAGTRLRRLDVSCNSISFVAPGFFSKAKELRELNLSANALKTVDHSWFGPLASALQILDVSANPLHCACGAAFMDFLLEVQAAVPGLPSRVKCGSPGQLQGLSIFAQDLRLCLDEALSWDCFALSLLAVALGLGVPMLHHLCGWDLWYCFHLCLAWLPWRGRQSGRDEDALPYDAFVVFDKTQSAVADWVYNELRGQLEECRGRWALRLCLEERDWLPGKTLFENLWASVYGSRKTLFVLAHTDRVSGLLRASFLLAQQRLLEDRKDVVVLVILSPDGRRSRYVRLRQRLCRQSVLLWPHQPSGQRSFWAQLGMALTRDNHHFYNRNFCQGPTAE
As to the kind of experiment: Antagonist activity at TLR9 in human PBMC assessed as inhibition of ODN2216-induced IFNalpha production. The class given is tissue-based.

On to `Cc1cc(-c2ccnc3[nH]ncc23)cnc1OCC12CCC(N)(CC1)CC2`, for which the IC50 is less than 1 nM on Toll-like receptor 8 and 1000 nM at Toll-like receptor 9.
